Laboratory results reported in patent US10745382B2 (BRISTOL-MYERS SQUIBB COMPANY, priority 2015, dated 2020).
Where a name gives a salt, the structure may show the parent alone.

Biological target: T1, PD-1/PD-L1 (Homo sapiens, UniProt Q9NZQ7)
T1 construct: made in house; host or cells: HEK293T
Experiment: PD-1/PD-L1 Homogenous Time-Resolved Fluorescence (HTRF) binding assay
Conditions: PD-L1-His 10 nM, PD-1-Ig 20 nM; value given as range class; read-out: Range or IC50
How it was run: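 Detection by europium cryptate anti-Ig plus APC anti-His (1 nM and 20 nM final) with HTRF signal. Buffer was dPBS, 0.1% BSA, 0.05% Tween-20.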

T1 sequence (Q9NZQ7 with tags, fused parts or gaps): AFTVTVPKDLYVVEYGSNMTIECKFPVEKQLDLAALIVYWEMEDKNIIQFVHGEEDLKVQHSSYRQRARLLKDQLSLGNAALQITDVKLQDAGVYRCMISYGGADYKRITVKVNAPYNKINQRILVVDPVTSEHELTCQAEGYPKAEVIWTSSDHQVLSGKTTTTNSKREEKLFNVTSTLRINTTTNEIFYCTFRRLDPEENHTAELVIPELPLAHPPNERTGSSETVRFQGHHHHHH

IC50 | Structure (SMILES)
0.21 to 10 nM | Cc1c(COc2cc(OCc3cncc(C#N)c3)c(CN[C@H](CO)C(=O)O)cc2Cl)cccc1-c1cccc(OCCCN2CCC(CO)(C(=O)O)C2)c1C (stereo partly drawn) [Example 1052, 1-(3-((3′-((4-((((R)-1-carboxy-2-hydroxyethyl)amino)methyl)-2-chloro-5-((5-cyanopyridin-3-yl)methoxy)phenoxy)methyl)-2,2′-dimethyl-[1,1′-biphenyl]-3-yl)oxy)propyl)-3-(hydroxymethyl)pyrrolidine-3-carboxylic Acid]
0.21 to 10 nM | Cc1c(CCCCN2CC[C@@H](O)C2)cccc1-c1cccc(COc2cc(OCc3cncc(C#N)c3)c(CNC(C)(CO)CO)cc2Cl)c1C [Example 4065, (R)-5-((4-chloro-2-(((1,3-dihydroxy-2-methylpropan-2-yl)amino)methyl)-5-((3′-(4-(3-hydroxypyrrolidin-1-yl)butyl)-2,2′-dimethyl-[1,1′-biphenyl]-3-yl)methoxy)phenoxy)methyl)nicotinonitrile]
0.21 to 10 nM | Cc1c(COc2cc(OCc3cncc(C#N)c3)c(CN[C@@](C)(CO)C(=O)O)cc2Cl)cccc1-c1cccc(OCCCN2CCC[C@H](C(=O)O)C2)c1C [Example 2264, (3S)-1-(3-(3′-((4-(((S)-2-carboxy-1-hydroxypropan-2-ylamino)methyl)-2-chloro-5-((5-cyanopyridin-3-yl)methoxy)phenoxy)methyl)-2,2′-dimethylbiphenyl-3-yloxy)propyl)piperidine-3-carboxylic Acid]
0.21 to 10 nM | Cc1c(COc2cc(OCc3cncc(C#N)c3)c(CNC[C@@H](O)CC(=O)O)cc2Cl)cccc1-c1cccc(OCCCN2CC[C@@H](O)C2)c1 [Example 1014, (S)-4-((5-chloro-2-((5-cyanopyridin-3-yl)methoxy)-4-((3′-(3-((R)-3-hydroxypyrrolidin-1-yl)propoxy)-2-methyl-[1,1′-biphenyl]-3-yl)methoxy)benzyl)amino)-3-hydroxybutanoic Acid]
0.21 to 10 nM | Cc1c(COc2cc(OCc3cncc(C#N)c3)c(CO)cc2Cl)cccc1-c1cccc(OCCCN2CCCC(CO)C2)c1Cl (stereo not drawn) [Example 2044, 5-((4-chloro-5-((2′-chloro-3′-(3-(3-(hydroxymethyl)piperidin-1-yl)propoxy)-2-methyl-[1,1′-biphenyl]-3-yl)methoxy)-2-(hydroxymethyl)phenoxy)methyl)nicotinonitrile]
0.21 to 10 nM | Cc1c(COc2cc(OCc3cncc(C#N)c3)c(CN3CCCC[C@H]3C(=O)O)cc2Cl)cccc1-c1cccc(OCCCN2CC(N(C)C)C2)c1C [Example 2232, (2S)-1-(5-chloro-2-((5-cyanopyridin-3-yl)methoxy)-4-((3′-(3-(3-(dimethylamino)azetidin-1-yl)propoxy)-2,2′-dimethylbiphenyl-3-yl)methoxy)benzyl)piperidine-2-carboxylic Acid]
0.21 to 10 nM | Cc1c(COc2cc(OCc3cncc(C#N)c3)c(CN[C@@](C)(CO)C(=O)O)cc2Cl)cccc1-c1cccc(OCCCN2CCC(O)C2)c1C (stereo in doubt) [Example 3003, (S)-2-((5-chloro-2-((5-cyanopyridin-3-yl)methoxy)-4-((3′-(3-((R)-3-hydroxypyrrolidin-1-yl)propoxy)-2,2′-dimethyl-[1,1′-biphenyl]-3-yl)methoxy)benzyl)amino)-3-hydroxy-2-methylpropanoic Acid]
0.21 to 10 nM | Cc1c(COc2cc(OCc3cncc(C#N)c3)c(CN3CCC[C@@H]3CO)cc2Cl)cccc1-c1cccc(OCCCN2CCC[C@@H]2CO)c1F [Example 1534, 5-((4-chloro-5-((2′-fluoro-3′-(3-((R)-2-(hydroxymethyl)pyrrolidin-1-yl)propoxy)-2-methyl-[1,1′-biphenyl]-3-yl)methoxy)-2-(((R)-2-(hydroxymethyl)pyrrolidin-1-yl)methyl)phenoxy)methyl)nicotinonitrile]
0.21 to 10 nM | Cc1c(COc2cc(OCc3cncc(C#N)c3)c(CN(C)CCC(N)=O)cc2Cl)cccc1-c1cccc(OCCCN(C)CCC(N)=O)c1C [Example 2266, 3-((3-(3′-((4-(((3-amino-3-oxopropyl)(methyl)amino)methyl)-2-chloro-5-((5-cyanopyridin-3-yl)methoxy)phenoxy)methyl)-2,2′-dimethylbiphenyl-3-yloxy)propyl)(methyl)amino)propanamide]
0.21 to 10 nM | Cc1c(COc2cc(OCc3cncc(C#N)c3)c(CN[C@](C)(CO)C(=O)O)cc2Cl)cccc1-c1cccc(OCCCNC[C@H](O)CO)c1Cl [Example 2048, (R)-2-((5-chloro-4-((2′-chloro-3′-(3-(((S)-2,3-dihydroxypropyl)amino)propoxy)-2-methyl-[1,1′-biphenyl]-3-yl)methoxy)-2-((5-cyanopyridin-3-yl)methoxy)benzyl)amino)-3-hydroxy-2-methylpropanoic Acid]
0.21 to 10 nM | Cc1c(COc2cc(OCc3cncc(C#N)c3)c(CNC(C)(C)CO)cc2Cl)cccc1-c1cccc(OCCCN2CC[C@@H](O)C2)c1Cl [Example 2067, (R)-5-((4-chloro-5-((2′-chloro-3′-(3-(3-hydroxypyrrolidin-1-yl)propoxy)-2-methyl-[1,1′-biphenyl]-3-yl)methoxy)-2-(((1-hydroxy-2-methylpropan-2-yl)amino)methyl)phenoxy)methyl)nicotinonitrile]
0.21 to 10 nM | CCC(CO)(CO)NCc1cc(Cl)c(OCc2cccc(-c3cccc(OCCCN4CC[C@@H](O)C4)c3C)c2C)cc1OCc1cncc(C#N)c1 [Example 2280, (R)-5-((4-chloro-2-(((1-hydroxy-2-(hydroxymethyl)butan-2-yl)amino)methyl)-5-((3′-(3-(3-hydroxypyrrolidin-1-yl)propoxy)-2,2′-dimethyl-[1,1′-biphenyl]-3-yl)methoxy)phenoxy)methyl)nicotinonitrile]
100 to 2000 nM | COC(=O)[C@@H]1CCCCN1Cc1cc(Cl)c(OCc2cccc(-c3cccc(OCCCN4CCOCC4)c3C)c2C)cc1OCc1cccc(C#N)c1 [Example 3053, (S)-methyl 1-(5-chloro-2-((3-cyanobenzyl)oxy)-4-((2,2′-dimethyl-3′-(3-morpholinopropoxy)-[1,1′-biphenyl]-3-yl)methoxy)benzyl)piperidine-2-carboxylate, 2 TFA]
0.21 to 10 nM | Cc1c(COc2cc(OCc3cncc(C#N)c3)c(CNC(CO)(CO)CO)cc2Cl)cccc1-c1cccc(OCCCN2CCCC(CO)C2)c1C (stereo not drawn) [Example 2284, 5-((4-chloro-2-(((1,3-dihydroxy-2-(hydroxymethyl)propan-2-yl)amino)methyl)-5-((3′-(3-(3-(hydroxymethyl)piperidin-1-yl)propoxy)-2,2′-dimethyl-[1,1′-biphenyl]-3-yl)methoxy)phenoxy)methyl)nicotinonitrile]
0.21 to 10 nM | Cc1c(COc2cc(OCc3cncc(C#N)c3)c(CN3CCCC[C@H]3C(=O)O)cc2Cl)cccc1-c1cccc(OCCCN2CC[C@@H](O)C2)c1 [Example 1013, (S)-1-(5-chloro-2-((5-cyanopyridin-3-yl)methoxy)-4-((3′-(3-((R)-3-hydroxypyrrolidin-1-yl)propoxy)-2-methyl-[1,1′-biphenyl]-3-yl)methoxy)benzyl)piperidine-2-carboxylic Acid]
0.21 to 10 nM | CC(CO)(CO)NCc1cc(Cl)c(OCc2cccc(-c3cccc(OCCCN4CC[C@@H](O)C4)c3Cl)c2Cl)cc1OCc1cccc(Cl)c1 [Example 2066, (R)-2-((5-chloro-2-((3-chlorobenzyl)oxy)-4-((2,2′-dichloro-3′-(3-(3-hydroxypyrrolidin-1-yl)propoxy)-[1,1′-biphenyl]-3-yl)methoxy)benzyl)amino)-2-methylpropane-1,3-diol]
0.21 to 10 nM | Cc1cc(OCc2cccc(-c3cccc(OCCCN4CC[C@@H](O)C4)c3C)c2C)cc(OCc2cncc(C#N)c2)c1CNC(CO)CO [Example 4087, (R)-5-((2-(((1,3-dihydroxypropan-2-yl)amino)methyl)-5-((3′-(3-(3-hydroxypyrrolidin-1-yl)propoxy)-2,2′-dimethyl-[1,1′-biphenyl]-3-yl)methoxy)-3-methylphenoxy)methyl)nicotinonitrile]
0.21 to 10 nM | COC(=O)[C@@H]1CCCCN1CCCOc1cccc(-c2cccc(COc3cc(OCc4cncc(C#N)c4)c(CN4CCCC[C@H]4C(=O)O)cc3Cl)c2C)c1C [Example 2243, (2S)-1-(5-chloro-2-((5-cyanopyridin-3-yl)methoxy)-4-((3′-(3-((S)-2-(methoxycarbonyl)piperidin-1-yl)propoxy)-2,2′-dimethylbiphenyl-3-yl)methoxy)benzyl)piperidine-2-carboxylic Acid]
0.21 to 10 nM | Cc1c(OCCCN2CC[C@@H](O)C2)cccc1-c1cccc(COc2cc(OCc3cncc(C#N)c3)c(CN[C@](C)(CO)C(=O)O)cc2Cl)c1Cl [Example 3017, (R)-2-((5-chloro-4-((2-chloro-3′-(3-((R)-3-hydroxypyrrolidin-1-yl)propoxy)-2′-methyl-[1,1′-biphenyl]-3-yl)methoxy)-2-((5-cyanopyridin-3-yl)methoxy)benzyl)amino)-3-hydroxy-2-methylpropanoic Acid]
0.21 to 10 nM | C=CC(=O)NCCCOc1cccc(-c2cccc(COc3cc(OCc4cncc(C#N)c4)c(CN[C@H](CO)C(=O)O)cc3Cl)c2C)c1 [Example 1021, (R)-2-((4-((3′-(3-acrylamidopropoxy)-2-methyl-[1,1′-biphenyl]-3-yl)methoxy)-5-chloro-2-((5-cyanopyridin-3-yl)methoxy)benzyl)amino)-3-hydroxypropanoic Acid]
0.21 to 10 nM | Cc1c(COc2cc(OCc3cncc(C#N)c3)c(CN3CCCC[C@H]3C(=O)O)cc2Cl)cccc1-c1cccc(OCCCN2CC[C@H](F)C2)c1C [Example 2247, (2S)-1-(5-chloro-2-((5-cyanopyridin-3-yl)methoxy)-4-((3′-(3-((S)-3-fluoropyrrolidin-1-yl)propoxy)-2,2′-dimethylbiphenyl-3-yl)methoxy)benzyl)piperidine-2-carboxylic Acid]
